In PubChem BioAssay AID1626 (SRMLSC, 2009):

System: M. tuberculosis H37Rv growth inhibition
Test: M. tuberculosis H37Rv growth inhibitors, H37Rv strain (AID 1626)
Conditions: for IC90: measured here: IC90 against H37Rv; for CC50: measured here: Vero cell cytotoxicity

Row | Compound | IC50 | IC90 | CC50
1 | Nc1ccc2oc(-c3cc(Br)ccc3Cl)nc2c1 | 18.6 µM | > 100 µM | –
2 | COc1cc(CNC(C)c2ccccc2)cc(Cl)c1OCC(=O)Nc1ccccc1 (stereo unspecified) | 3.1 µM | 3.39 µM | > 40 µM
3 | Cc1cccc(C(=O)Nc2ccc(C(=O)/C=C/c3cccnc3)cc2)c1 | 6.04 µM | 9.07 µM | 22.3 µM
4 | COc1ccc2nc(SCC(=O)Nc3ccc4c(c3)CCC4)[nH]c2c1 | 15.6 µM | > 100 µM | –
5 | CCCOc1ccc(NCC(=O)Nc2ccc(C)cc2C)cc1 | < 0.391 µM | > 100 µM | –
6 | CCc1c(C#N)c(N)nc(SCC(=O)OCc2ccccc2)c1C#N | – | > 100 µM | –
7 | O=C(CC(SCc1ccco1)c1ccc(O)cc1)c1cccs1 (stereo unspecified) | 27.4 µM | > 100 µM | > 40 µM
8 | COc1ccc(S(=O)(=O)Oc2ccc3c(c2)O/C(=C\c2cccnc2)C3=O)cc1 | 2.34 µM | 19.4 µM | –
9 | Cc1ccc(NC(=O)CCn2cnc3ccccc3c2=O)cc1Cl | – | > 100 µM | –
10 | COc1ccc(N=Cc2c(O)ccc3ccccc23)cc1 | – | > 100 µM | –
11 | Cc1ccc2nc(/C(C#N)=C\c3ccc([N+](=O)[O-])o3)[nH]c2c1 | < 0.195 µM | < 0.195 µM | 3.11 µM
12 | CCCCc1ccc(NC=C2C(=O)OC3(CCCCC3)OC2=O)cc1 | 6.18 µM | > 100 µM | –
13 | CCOc1ccc(CN(C)C(=O)CCl)cc1 | 26.7 µM | > 100 µM | 12.7 µM
14 | CCOC(=O)c1ccc(N=C(C)c2c(O)[nH]c(=O)[nH]c2=O)cc1 | – | > 100 µM | –
15 | CCOC(=O)c1c(C)n(C)c2ccc(OC(C)C(=O)OC)cc12 (stereo unspecified) | 8.04 µM | 14.4 µM | –
16 | Nc1[nH]n2c(=O)c3c(nc2c1N=Nc1ccc(Cl)cc1)CCCC3 | 10.7 µM | 21.5 µM | 25.4 µM
17 | O=C(Nc1cccnc1)c1cc2cc(Br)ccc2oc1=O | – | > 100 µM | –
18 | COc1ccc(N=C2C(=O)N3CCCc4cccc2c43)cc1 | – | > 100 µM | –
19 | CCCSc1cc(N2CCN(C)CC2)nc(-c2ccc(OC)cc2)n1 | 10.9 µM | 12.2 µM | > 40 µM
20 | c1ccc(-c2nc(NCC3CCCO3)c3ccccc3n2)nc1 (stereo unspecified) | 3.11 µM | 3.21 µM | > 40 µM
21 | COC(=O)CCSc1cc(NCCOC(C)=O)c([N+](=O)[O-])c2nonc12 | 16.1 µM | 40.3 µM | –
22 | CCCSC1=C(C#N)C(c2cccs2)C(C(=O)Nc2ccccc2)=C(C)N1 (stereo unspecified) | 7.77 µM | 68.2 µM | > 40 µM

Row | Compound | IC50 | IC90 | CC50
23 | Nc1ccc(C(=O)O)c(O)c1 | < 0.195 µM | > 100 µM | –
24 | COc1cccc(C(=O)/C=C/c2ccc(OCC#N)c(OC)c2)c1 | 19.8 µM | > 100 µM | 12.4 µM
25 | CC1CC(C)CN(C(=O)c2ccc(CNc3c(N4CCCC4)c(=O)c3=O)cc2)C1 (stereo unspecified) | 1.46 µM | 1.64 µM | –
26 | Cc1cc(C)n(-c2nc(Nc3ccccc3C)nc(-n3nc(C)cc3C)n2)n1 | 88.4 µM | > 100 µM | –
27 | COc1ccccc1-c1nnc(NC(=O)c2ccc3ncsc3c2)o1 | 4.17 µM | > 100 µM | 24.3 µM
28 | CN1CCN(c2nc(-c3ccccc3)nc3c2oc2ccccc23)CC1 | 5.55 µM | 10.5 µM | 30 µM
29 | N#C/C(=C/c1cn(-c2ccccc2)nc1-c1cccc(OCc2ccc(F)cc2)c1)C(=O)NCCCn1ccnc1 | 4.19 µM | 6.45 µM | 22.5 µM
30 | O=C(NCCCn1ccnc1)c1nn2c(C(F)(F)F)cc(-c3ccc(Br)cc3)nc2c1Cl | 6.53 µM | 9.35 µM | > 40 µM
31 | CCCCOC(=O)c1ccc(NC(=O)C(=O)NCc2ccccn2)cc1 | – | > 100 µM | –
32 | O=[N+]([O-])c1cc(CN2CCCC2)ccc1Sc1ccc(Cl)cc1 | 29.8 µM | > 100 µM | > 40 µM
33 | Cc1nc2ccc(NC(=O)COc3cccc(F)c3)cc2s1 | 20.6 µM | > 100 µM | –
34 | CCCCOc1ccc(NC(=O)C2CC=CCC2C(=O)O)cc1 (stereo unspecified) | 75.7 µM | > 100 µM | –
35 | CC1(c2ccccc2)CC(C)(C)N(C(=O)c2cc([N+](=O)[O-])cc([N+](=O)[O-])c2)c2ccccc21 (stereo unspecified) | 13.4 µM | 54.5 µM | > 40 µM
36 | Cc1cc(C)cc(OCc2nnc(SCC(=O)OC(C)C)o2)c1 | – | > 100 µM | –
37 | Cc1cc(C(=O)Cn2cncn2)c(C)n1CCc1ccc(F)cc1 | – | > 100 µM | –
38 | N#Cc1c(N2CCN(C(=O)c3ccco3)CC2)nc(-c2ccccc2)c2c1CCCC2 | 9.52 µM | 12.2 µM | 24.1 µM
39 | COc1ccc(N2C(=O)NC(=O)/C(=C/c3cccc(OC(=O)c4cccs4)c3)C2=O)cc1Cl | 5.35 µM | 17.5 µM | –
40 | CSc1nc2ccc(NS(=O)(=O)c3cccc(Cl)c3Cl)cc2s1 | – | > 100 µM | –
41 | Cn1c(O)c(C=Nc2ccc3c(c2)CCC3)c(=O)n(C)c1=O | – | > 100 µM | –
42 | CCc1c(O)nc(SCC(=O)Nc2ccc3c(c2)CCC3)[nH]c1=O | 57.4 µM | > 100 µM | –
43 | Nc1nc(-c2ccc(F)cc2)cs1 | 23.8 µM | > 100 µM | –
44 | COc1ccc(Oc2ccc(N/C=C/C(=O)C(C)(C)C)cc2)cc1 | 75 µM | > 100 µM | –

Row | Compound | IC50 | IC90 | CC50
45 | CS(=O)(=O)Nc1cccc2cccnc12 | 11.7 µM | 12.9 µM | > 40 µM
46 | CCOC(=O)COc1cc2c3c(c(=O)oc2cc1C)CCCC3 | 1.59 µM | 10.4 µM | –
47 | COC(=O)C(Oc1ccc2c(-c3ccc(OC)cc3)cc(=O)oc2c1)c1ccccc1 (stereo unspecified) | 15.4 µM | 20.9 µM | –
48 | O=C(Nc1nc2ccccc2[nH]1)C12CC3CC(CC(C3)C1)C2 | 2.25 µM | 13.1 µM | > 40 µM
49 | C#CCOCCOCCOCCNc1nc(N2CCN(C(=O)[C@H](Cc3ccc(O)cc3)n3cc([C@@H](N)CC(C)C)nn3)CC2)nc(N2CCN(C(=O)[C@H](Cc3cc4ccccc4[nH]3)n3cc([C@@H](N)CC(C)C)nn3)CC2)n1 | 11.7 µM | 16.7 µM | –
50 | Cc1ccc(Oc2nc(CN3CCOCC3)nc3sc4c(c23)CCC(C)C4)cc1 (stereo unspecified) | 17.1 µM | 22.4 µM | > 40 µM
51 | Cc1cc(C)c2nc(/N=C(\N)NC(=O)Nc3ccccc3)nc(C)c2c1 | 4.02 µM | 5.93 µM | > 40 µM
52 | CNC(=O)c1csc(-c2ccc(Cl)cc2)n1 | 38.6 µM | > 100 µM | –
53 | Cc1ccc(-c2nn(-c3ccccc3)cc2C=O)o1 | – | – | > 40 µM
54 | CCCOc1ccc(-c2nc(C#N)c(NCCCn3ccnc3)o2)cc1 | 15 µM | > 100 µM | > 40 µM
55 | C#CCn1c(=NC(=O)c2cc(Cl)sc2Cl)sc2cc(S(N)(=O)=O)ccc21 | 1.57 µM | > 100 µM | > 40 µM
56 | COc1cc(-c2nc3ccc4ccccc4c3c3c2CCC3)cc(OC)c1O | 13.1 µM | 18.8 µM | > 40 µM
57 | COc1ccc(C(CCN2CCCC(C)C2)c2c(OC)cc(OC)c3c(-c4ccccc4)cc(=O)oc23)cc1 (stereo unspecified) | 7.53 µM | 10.2 µM | 14.1 µM
58 | COC(=O)c1cc(-c2ccc(OC)c(OC)c2)on1 | < 0.391 µM | > 100 µM | –
59 | CSc1ccc(/C=C/C(=O)c2ccc(NC(C)=O)cc2)cc1 | 28.4 µM | > 100 µM | –
60 | O=C(Nc1ccccc1Cl)Oc1ccc2ccccc2c1 | – | > 100 µM | –
61 | O=C(CNCc1ccccc1)Nc1ccc(Oc2ccccc2)cc1 | 13.2 µM | > 100 µM | –
62 | CCN1CCN(Cc2ccc(NC(=O)c3ccc(C)c(NC(=O)C(=O)c4c[nH]c5ccccc45)c3)cc2C(F)(F)F)CC1 | 4.32 µM | 5.57 µM | 6.73 µM
63 | Cc1cccc(C(=O)Nc2nnc(-c3ccco3)o2)c1 | 0.695 µM | 3.56 µM | 37.1 µM
64 | CC(=O)c1ccc(NC(=O)CSCC(=O)Nc2ccc3ccccc3c2)cc1 | 51 µM | > 100 µM | –
65 | Cc1ccc(NCCC(=O)c2cccs2)cc1 | 24.8 µM | 32.7 µM | –
66 | O=C(c1cc(COc2ccc(F)cc2Cl)on1)N1CCC(OCc2cccnc2)CC1 | – | > 100 µM | 8.01 µM

Row | Compound | IC50 | IC90 | CC50
67 | Clc1ccc(-c2nnc(SCc3nc4ccccc4s3)o2)cc1 | 5.3 µM | > 100 µM | –
68 | CSc1nc(-c2ccccc2)nc(C(Cl)Cl)n1 | 1.37 µM | 2.04 µM | 6.42 µM
69 | O=C(COC(=O)C1COc2ccccc2O1)NC(=O)Nc1ccc2c(c1)OCCO2 (stereo unspecified) | – | > 100 µM | –
70 | O=C(NCCc1nc2ccccc2[nH]1)/C(=C/c1ccc2c(c1)OCO2)NC(=O)c1ccc(Cl)cc1Cl | 20.6 µM | 52.9 µM | –
71 | O=C(CSCC(=O)N1CCCCC1)Nc1nc(-c2ccc(Cl)s2)cs1 | 44 µM | > 100 µM | –
72 | Oc1ccc2ccccc2c1CNc1cnc2ccccc2c1 | 1.42 µM | > 100 µM | –
73 | CC1Cc2ccccc2N1C(=O)COC(=O)c1ccc(Cl)nc1 (stereo unspecified) | 10.7 µM | > 100 µM | –
74 | CN(C)c1ccc(C(=O)Nc2nnc(-c3ccc(Cl)cc3)o2)cc1 | 0.895 µM | > 100 µM | > 40 µM
75 | N=C1/C(=C/c2ccc(OC(=O)c3ccco3)cc2)C(=O)N=C2SC=CN12 | – | > 100 µM | –
76 | Cc1ccccc1-n1c(O)c(C=Nc2ccc3c(c2)OCO3)c(=O)[nH]c1=O | – | > 100 µM | –
77 | COc1ccc(CCNc2nc(N3CCCCC3)nc(N3CCCCC3)n2)cc1OC | 12.4 µM | 18.8 µM | > 40 µM
78 | O=C(Nc1ccc(-c2csc(Nc3cccc(C(F)(F)F)c3)n2)cc1)c1cccc(C(F)(F)F)c1 | 0.954 µM | 1.53 µM | 17.6 µM
79 | COc1ccc(OCCn2c(NC(=O)c3ccco3)nc3ccccc32)cc1 | – | > 100 µM | 33.2 µM
80 | COC(=O)CSc1nnc(-c2ccc(OC)cc2OC)o1 | 1.76 µM | 4.54 µM | –
81 | CCCCOC(=O)CSc1nc(N)c(C#N)c(-c2ccc(OC)cc2)c1C#N | 1.14 µM | 2.39 µM | –
82 | Cc1ccc2nc(/C(C#N)=C\c3ccc(OC(=O)c4cccs4)cc3)[nH]c2c1 | 20.4 µM | > 100 µM | 22.9 µM
83 | COc1ccc(-c2nnc(SCC(=O)OC3CCCCC3)o2)cc1OC | < 0.195 µM | 1.04 µM | > 40 µM
84 | Nc1cc(=O)[nH]c(SCC(=O)Nc2ccccc2-c2ccccc2)n1 | – | > 100 µM | > 40 µM
85 | O=C(Nc1nnc(-c2ccc3c(c2)OCCO3)o1)C1CCCCC1 | – | > 100 µM | –
